± gives the standard deviation of the averaged measurements.
The test systems below were run with T1, O=c1[nH]cc(F)c(=O)[nH]1 [FLUOROURACIL] (assay: surviving fraction relative to DMSO-only wells; higher = less growth inhibition). Details: 0.5 nM; exposure time: 5 days.
Summary of the method: (§1)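 Tumour cell lines were grown to log phase and seeded at 250–500 cells per well in 384-well plates. They were exposed continuously to inhibitors at 0.5, 1, 5, 10, 50, 100, 500 and 1000 nM for five days, beginning 24 hours after seeding. Surviving fraction is CellTiter-Glo luminescence normalised to the median of DMSO-only wells.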
HMLE3 BREAST showed a surviving fraction of 1.05 ± 0.097. HS578T BREAST gave a surviving fraction of 0.839 ± 0.2. With HMT3552 BREAST the surviving fraction was 0.951 ± 0.044. For CCK81 LARGE INTESTINE, the surviving fraction was 0.849 ± 0.12. Test System HCC38 BREAST has a surviving fraction of 1.01 ± 0.2. HS57T BREAST was tested, and the surviving fraction was 1.02 ± 0.026. G292 BONE gave a surviving fraction of 0.993 ± 0.028. Work on HCC70 BREAST yielded a surviving fraction of 1.06 ± 0.054.

Same assay, conditions: 1 nM; exposure time: 5 days
Work on HMLE3 BREAST yielded a surviving fraction of 1.11 ± 0.03. HS578T BREAST was tested, and the surviving fraction was 1.04 ± 0.043. With HMT3552 BREAST the surviving fraction was 0.925 ± 0.085. CCK81 LARGE INTESTINE gave a surviving fraction of 0.804 ± 0.081. Work on HCC38 BREAST yielded a surviving fraction of 0.97 ± 0.11. Test System HS57T BREAST has a surviving fraction of 1.04 ± 0.086. Work on G292 BONE yielded a surviving fraction of 0.965 ± 0.051. HCC70 BREAST was tested, and the surviving fraction was 1.08 ± 0.12.

Same assay, conditions: 5 nM; exposure time: 5 days
With HMLE3 BREAST the surviving fraction was 1.09 ± 0.15. In the case of HS578T BREAST, the surviving fraction is reported as 0.904 ± 0.054. HMT3552 BREAST gave a surviving fraction of 0.976 ± 0.08. CCK81 LARGE INTESTINE gave a surviving fraction of 0.764 ± 0.086. HCC38 BREAST showed a surviving fraction of 1.02 ± 0.17. With HS57T BREAST the surviving fraction was 1.07 ± 0.056. For G292 BONE, the surviving fraction was 1.02 ± 0.037. With HCC70 BREAST the surviving fraction was 1.14 ± 0.083.

Same assay, conditions: 10 nM; exposure time: 5 days
HMLE3 BREAST gave a surviving fraction of 1.13 ± 0.043. Work on HS578T BREAST yielded a surviving fraction of 0.856 ± 0.1. Test System HMT3552 BREAST has a surviving fraction of 0.85 ± 0.048. CCK81 LARGE INTESTINE gave a surviving fraction of 0.835 ± 0.13. HCC38 BREAST gave a surviving fraction of 1.11 ± 0.14. Work on HS57T BREAST yielded a surviving fraction of 0.995 ± 0.044. G292 BONE showed a surviving fraction of 1.01 ± 0.03. Work on HCC70 BREAST yielded a surviving fraction of 1.12 ± 0.028.

Same assay, conditions: 50 nM; exposure time: 5 days
For HMLE3 BREAST, the surviving fraction was 1.06 ± 0.091. With HS578T BREAST the surviving fraction was 0.902 ± 0.19. HMT3552 BREAST gave a surviving fraction of 1.01 ± 0.036. Test System CCK81 LARGE INTESTINE has a surviving fraction of 0.851 ± 0.079. HCC38 BREAST was tested, and the surviving fraction was 0.8 ± 0.092. HS57T BREAST gave a surviving fraction of 0.972 ± 0.044. Work on G292 BONE yielded a surviving fraction of 0.994 ± 0.051. For HCC70 BREAST, the surviving fraction was 1.04 ± 0.092.

Same assay, conditions: 100 nM; exposure time: 5 days
HMLE3 BREAST was tested, and the surviving fraction was 0.955 ± 0.065. HS578T BREAST gave a surviving fraction of 0.817 ± 0.15. Test System HMT3552 BREAST has a surviving fraction of 0.89 ± 0.02. CCK81 LARGE INTESTINE was tested, and the surviving fraction was 0.751 ± 0.075. HCC38 BREAST was tested, and the surviving fraction was 0.727 ± 0.14. For HS57T BREAST, the surviving fraction was 1 ± 0.041. G292 BONE was tested, and the surviving fraction was 0.939 ± 0.027. HCC70 BREAST was tested, and the surviving fraction was 1.03 ± 0.06.

Same assay, conditions: 500 nM; exposure time: 5 days
In the case of HMLE3 BREAST, the surviving fraction is reported as 0.838 ± 0.034. HS578T BREAST showed a surviving fraction of 0.793 ± 0.071. HMT3552 BREAST was tested, and the surviving fraction was 0.939 ± 0.1. For CCK81 LARGE INTESTINE, the surviving fraction was 0.775 ± 0.042. In the case of HCC38 BREAST, the surviving fraction is reported as 0.689 ± 0.027. Work on HS57T BREAST yielded a surviving fraction of 0.926 ± 0.059. For G292 BONE, the surviving fraction was 0.941 ± 0.017. In the case of HCC70 BREAST, the surviving fraction is reported as 0.778 ± 0.047.

Same assay, conditions: 1000 nM; exposure time: 5 days
Test System HMLE3 BREAST has a surviving fraction of 0.702 ± 0.15. HS578T BREAST gave a surviving fraction of 0.708 ± 0.041. HMT3552 BREAST gave a surviving fraction of 0.536 ± 0.033. Work on CCK81 LARGE INTESTINE yielded a surviving fraction of 0.609 ± 0.084. With HCC38 BREAST the surviving fraction was 0.644 ± 0.097. HS57T BREAST was tested, and the surviving fraction was 0.734 ± 0.061. With G292 BONE the surviving fraction was 0.759 ± 0.054. For HCC70 BREAST, the surviving fraction was 0.735 ± 0.053.

These test systems were tested with COc1ccc(C2=N[C@@H](c3ccc(Cl)cc3)[C@@H](c3ccc(Cl)cc3)N2C(=O)N2CCNC(=O)C2)c(OC(C)C)c1 [NUTLIN3] in the same assay as above. Details: 0.5 nM; exposure time: 5 days.
Summary of the method: as §1
In the case of HMLE3 BREAST, the surviving fraction is reported as 0.967 ± 0.059. HS578T BREAST gave a surviving fraction of 1.11 ± 0.067. Test System HMT3552 BREAST has a surviving fraction of 0.97. HCC38 BREAST was tested, and the surviving fraction was 1.19 ± 0.29. With HS57T BREAST the surviving fraction was 0.965 ± 0.045. In the case of G292 BONE, the surviving fraction is reported as 0.982 ± 0.028. Test System HCC70 BREAST has a surviving fraction of 1.03 ± 0.094.

Same assay, conditions: 1 nM; exposure time: 5 days
For HMLE3 BREAST, the surviving fraction was 0.985 ± 0.041. Work on HS578T BREAST yielded a surviving fraction of 0.926 ± 0.069. With HMT3552 BREAST the surviving fraction was 0.984. HCC38 BREAST was tested, and the surviving fraction was 1.23 ± 0.12. For HS57T BREAST, the surviving fraction was 0.991 ± 0.018. For G292 BONE, the surviving fraction was 0.955 ± 0.03. HCC70 BREAST showed a surviving fraction of 1.03 ± 0.043.

Same assay, conditions: 5 nM; exposure time: 5 days
Test System HMLE3 BREAST has a surviving fraction of 1.02 ± 0.028. In the case of HS578T BREAST, the surviving fraction is reported as 0.883 ± 0.19. HMT3552 BREAST was tested, and the surviving fraction was 1. HCC38 BREAST was tested, and the surviving fraction was 1.35 ± 0.062. For HS57T BREAST, the surviving fraction was 1.01 ± 0.045. For G292 BONE, the surviving fraction was 1.06 ± 0.047. HCC70 BREAST was tested, and the surviving fraction was 1.02 ± 0.063.

Same assay, conditions: 10 nM; exposure time: 5 days
With HMLE3 BREAST the surviving fraction was 0.996 ± 0.085. HS578T BREAST gave a surviving fraction of 0.8973 ± 0.0049. HMT3552 BREAST was tested, and the surviving fraction was 1. With HCC38 BREAST the surviving fraction was 1.29 ± 0.12. For HS57T BREAST, the surviving fraction was 1.04 ± 0.046. In the case of G292 BONE, the surviving fraction is reported as 1.05 ± 0.032. HCC70 BREAST gave a surviving fraction of 1.05 ± 0.087.

Same assay, conditions: 50 nM; exposure time: 5 days
HMLE3 BREAST was tested, and the surviving fraction was 0.982 ± 0.046. Work on HS578T BREAST yielded a surviving fraction of 0.92 ± 0.041. HMT3552 BREAST was tested, and the surviving fraction was 1.19. HCC38 BREAST gave a surviving fraction of 1.28 ± 0.14. In the case of HS57T BREAST, the surviving fraction is reported as 1.01 ± 0.023. Test System G292 BONE has a surviving fraction of 1.03 ± 0.044. With HCC70 BREAST the surviving fraction was 1.07 ± 0.085.

Same assay, conditions: 100 nM; exposure time: 5 days
HMLE3 BREAST gave a surviving fraction of 0.995 ± 0.043. HS578T BREAST showed a surviving fraction of 0.936 ± 0.072. HMT3552 BREAST gave a surviving fraction of 1.21. HCC38 BREAST was tested, and the surviving fraction was 1.28 ± 0.11. With HS57T BREAST the surviving fraction was 1.12 ± 0.033. G292 BONE showed a surviving fraction of 0.989 ± 0.026. For HCC70 BREAST, the surviving fraction was 1.14 ± 0.055.

Same assay, conditions: 500 nM; exposure time: 5 days
HMLE3 BREAST showed a surviving fraction of 0.964 ± 0.025. With HS578T BREAST the surviving fraction was 0.913 ± 0.14. HMT3552 BREAST gave a surviving fraction of 1.12. HCC38 BREAST showed a surviving fraction of 1.22 ± 0.22. For HS57T BREAST, the surviving fraction was 1.06 ± 0.027. G292 BONE showed a surviving fraction of 1.01 ± 0.045. For HCC70 BREAST, the surviving fraction was 1.04 ± 0.073.

Same assay, conditions: 1000 nM; exposure time: 5 days
Work on HMLE3 BREAST yielded a surviving fraction of 1.02 ± 0.024. With HS578T BREAST the surviving fraction was 0.921 ± 0.06. HMT3552 BREAST showed a surviving fraction of 1.14. With HCC38 BREAST the surviving fraction was 1.26 ± 0.25. For HS57T BREAST, the surviving fraction was 1.04 ± 0.071. Test System G292 BONE has a surviving fraction of 0.979 ± 0.054. HCC70 BREAST showed a surviving fraction of 1.07 ± 0.084.

Each test system was assayed with COc1cccc2c1C(=O)c1c(O)c3c(c(O)c1C2=O)C[C@@](O)(C(=O)CO)C[C@@H]3O[C@H]1C[C@H](N)[C@H](O)[C@H](C)O1 [DOXORUBICIN] (assay: area under dose-response curve of surviving fraction (unscaled, Aref=0) (surviving fraction x log10(nM)); higher = more resistant). Details: exposure time: 5 days; dose range 0.5-1000 nM.
Summary of the method: (§2)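 Tumour cell lines in 384-well plates were exposed for five days to eight inhibitor concentrations from 0.5 to 1000 nM. Viability was read by CellTiter-Glo luminescence, normalised to DMSO-only wells, in three screens per line. Dose-response survival curves were fitted to surviving fractions by 3-parameter logistic regression in the drc R package. Area under the curve is the unscaled activity area (Aref = 0) over log10 dose.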
HMLE3 BREAST was tested, and the “area under dose-response curve” value was 1.36. HS578T BREAST was tested, and the “area under dose-response curve” value was 1.93. For HCC38 BREAST, the “area under dose-response curve” value was 1.77. In the case of G292 BONE, the “area under dose-response curve” value is reported as 1.77. In the case of HCC70 BREAST, the “area under dose-response curve” value is reported as 2.04.

Each test system was assayed with C=CCNC1=C2C[C@@H](C)C[C@H](OC)[C@H](O)[C@@H](C)/C=C(\C)[C@H](OC(N)=O)[C@@H](OC)/C=C\C=C(/C)C(=O)NC(=CC1=O)C2=O [17-AAG] in the same assay as above. Details: exposure time: 5 days; dose range 0.5-1000 nM.
Summary of the method: as §2
For HMLE3 BREAST, the “area under dose-response curve” value was 1.61. In the case of HS578T BREAST, the “area under dose-response curve” value is reported as 1.45. With HCC38 BREAST the “area under dose-response curve” value was 0.903. For G292 BONE, the “area under dose-response curve” value was 1.84. For HCC70 BREAST, the “area under dose-response curve” value was 1.53.

Each test system was assayed with T1, FLUOROURACIL in the same assay as above. Details: exposure time: 5 days; dose range 0.5-1000 nM.
Summary of the method: as §2
In the case of HS578T BREAST, the “area under dose-response curve” value is reported as 2.85. HMT3552 BREAST was tested, and the “area under dose-response curve” value was 3.23. CCK81 LARGE INTESTINE was tested, and the “area under dose-response curve” value was 2.58. In the case of HCC38 BREAST, the “area under dose-response curve” value is reported as 2.87. For G292 BONE, the “area under dose-response curve” value was 3.29.

Each test system was assayed with CC[C@@H](C(=O)[C@@H](C)[C@@H](O)[C@H](C)[C@@H]1O[C@@H]([C@@H](CC)C(=O)O)CC[C@@H]1C)[C@H]1O[C@]2(C=C[C@@H](O)[C@]3(CC[C@@](C)([C@H]4CC[C@](O)(CC)[C@H](C)O4)O3)O2)[C@H](C)C[C@@H]1C [SALINOMYCIN] in the same assay as above. Details: exposure time: 5 days; dose range 0.5-1000 nM.
Summary of the method: as §2
HMLE3 BREAST was tested, and the “area under dose-response curve” value was 2.7. HS578T BREAST was tested, and the “area under dose-response curve” value was 2.87. In the case of HCC38 BREAST, the “area under dose-response curve” value is reported as 2.83. In the case of G292 BONE, the “area under dose-response curve” value is reported as 2.65. In the case of HCC70 BREAST, the “area under dose-response curve” value is reported as 2.56.
